Test results as given in PMC6956242 (Journal of Medicinal Chemistry, 2019).
Where two headings read alike, the source gives them in different places. Each block holds one molecule with its values, some of them ahead of it. The star is where a group is joined. Biotin = O=C1N[C@H]2[C@H](CS[C@H]2CCCCC(=O)*)N1

Experiments:
His6-RORγt-LBD [1] = molecular target: T1, His6-RORγt-LBD (Homo sapiens, UniProt P51449)
T1 sequence (P51449 265-518): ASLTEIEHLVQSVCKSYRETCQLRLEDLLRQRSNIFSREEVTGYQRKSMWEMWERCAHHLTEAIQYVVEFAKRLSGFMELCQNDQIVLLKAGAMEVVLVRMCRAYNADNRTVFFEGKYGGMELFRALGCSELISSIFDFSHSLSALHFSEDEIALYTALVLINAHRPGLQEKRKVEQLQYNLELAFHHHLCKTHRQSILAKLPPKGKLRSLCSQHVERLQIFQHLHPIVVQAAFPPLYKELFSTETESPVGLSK

[2] = Microsomal stability phase II; assay type: in vitro ADME, human; conditions: 5 μM, UDPGA, 1 h, 37 °C
Chemical stability = assay type: physicochemical; conditions: 2 μM, aqueous buffer pH 7.4
Plasma protein binding = assay type: in vitro ADME; conditions: 5 μM, equilibrium dialysis 6 h, 37 °C
Plasma stability = assay type: in vitro ADME; conditions: 5 μM, 100% plasma, 1 h, 37 °C
PAMPA = assay type: in vitro ADME; conditions: 500 μM donor, 20 h
His6-RORγt-LBD [3] = molecular target: T1, His6-RORγt-LBD; assay type: biochemical; conditions: for improvement in potency compared to phenyl 19: vs 19, coactivator recruitment IC50
[4] = molecular target: T2, His6-RORγt-LBD (human retinoic acid receptor-related orphan receptor γt ligand binding domain, residues … (human, UniProt P51449-1 265-518)); assay: AlphaScreen or HTRF
T2 sequence (looked up): T1 sequence (P51449 265-518)

- Hill slope (His6-RORγt-LBD [1]; 0 μM cholesterol): –0.76 ± 0.05
- Hill slope (His6-RORγt-LBD [1]; 0.25 μM cholesterol): –0.77 ± 0.03
- Hill slope (His6-RORγt-LBD [1]; 1.0 μM cholesterol): –1.01 ± 0.06
Molecule: C[C@H]1O[C@@H](O[C@H]2[C@@H](O)C[C@H](O[C@H]3[C@@H](O)C[C@H](O[C@H]4CC[C@@]5(C)[C@H](CC[C@@H]6[C@@H]5C[C@@H](O)[C@]5(C)[C@@H](C7=CC(=O)OC7)CC[C@]65O)C4)O[C@@H]3C)O[C@@H]2C)C[C@H](O)[C@@H]1O [compound 1, digoxin, reference compound]

- microsomal stability phase 2 (% remain) [2]: 47.1 % remain
- chemical stability (% remain) (Chemical stability): 81.0 % remain
- plasma protein binding (% bound) (Plasma protein binding): 99.9 % bound
- plasma stability (% remain) (Plasma stability): 100 % remain
- PAMPA (% flux) (PAMPA): 23.7 % flux
Molecule: O=C(O)c1ccc(-c2nn(C(=O)c3c(Cl)cccc3C(F)(F)F)c3ccccc23)cc1 [compound 3, MRL-871, reference compound]

- IC50 (TR-FRET coactivator recruitment) (His6-RORγt-LBD [3]; RORγt LBD, SRC-1 box2 peptide, triplicate): no IC50 curve could be fitted
Molecule: O=C(O)c1ccc(NCc2c(-c3c(Cl)cccc3C(F)(F)F)noc2-c2cccc3ccccc23)cc1 [compound 26, 4-[({3-[2-Chloro-6-(trifluoromethyl)phenyl]-5-(naphthalen-1-yl)-1,2-oxazol-4-yl}methyl)amino]benzoic Acid]

- binding result [4]: binds
B1: N-terminal biotinylated SRC-1 box2 peptide (peptide)
peptide: Biotin-PSSHSSLTARHKILHRLLQEGSPSD-NH2
SMILES: CC[C@H](C)[C@H](NC(=O)[C@H](CCCCN)NC(=O)[C@H](Cc1c[nH]cn1)NC(=O)[C@H](CCCNC(=N)N)NC(=O)[C@H](C)NC(=O)[C@@H](NC(=O)[C@H](CC(C)C)NC(=O)[C@H](CO)NC(=O)[C@H](CO)NC(=O)[C@H](Cc1c[nH]cn1)NC(=O)[C@H](CO)NC(=O)[C@H](CO)NC(=O)[C@@H]1CCCN1C(=O)CCCC[C@@H]1SC[C@@H]2NC(=O)N[C@@H]21)[C@@H](C)O)C(=O)N[C@@H](CC(C)C)C(=O)N[C@@H](Cc1c[nH]cn1)C(=O)N[C@@H](CCCNC(=N)N)C(=O)N[C@@H](CC(C)C)C(=O)N[C@@H](CC(C)C)C(=O)N[C@@H](CCC(N)=O)C(=O)N[C@@H](CCC(=O)O)C(=O)NCC(=O)N[C@@H](CO)C(=O)N1CCC[C@H]1C(=O)N[C@@H](CO)C(=O)N[C@@H](CC(=O)O)C(N)=O

Further lines, the molecule ahead of its results:

Molecule: O=C(O)c1ccc(NC(=O)c2c(-c3c(Cl)cccc3C(F)(F)F)noc2-c2ccccc2)cc1 [compound 8, 4-{3-[2-Chloro-6-(trifluoromethyl)phenyl]-5-phenyl-1,2-oxazole-4-amido}benzoic Acid]
- microsomal stability phase 2 (% remain) [2]: 100 % remain
- chemical stability (% remain) (Chemical stability): 95.4 % remain
- plasma protein binding (% bound) (Plasma protein binding): 97.8 % bound
- plasma stability (% remain) (Plasma stability): 99.9 % remain
- PAMPA (% flux) (PAMPA): 60.1 % flux

Molecule: O=C(O)c1ccc(CNC(=O)c2c(-c3c(Cl)cccc3C(F)(F)F)noc2-c2ccccc2)cc1 [compound 18, 4-[({3-[2-Chloro-6-(trifluoromethyl)phenyl]-5-phenyl-1,2-oxazol-4-yl}formamido)methyl]benzoic Acid]
- increase in potency compared to the initial hit (His6-RORγt-LBD [3]; vs 8, TR-FRET IC50): 6 fold

Molecule: O=C(O)c1ccc(NCc2c(-c3c(Cl)cccc3C(F)(F)F)noc2-c2ccco2)cc1 [compound 23, 4-[({3-[2-Chloro-6-(trifluoromethyl)phenyl]-5-(furan-2-yl)-1,2-oxazol-4-yl}methyl)amino]benzoic Acid]
- microsomal stability phase 2 (% remain) [2]: 92.8 % remain
- chemical stability (% remain) (Chemical stability): 100 % remain
- improvement in potency compared to phenyl 19 (His6-RORγt-LBD [3]): 9 fold
- plasma protein binding (% bound) (Plasma protein binding): 100 % bound
- plasma stability (% remain) (Plasma stability): 86.5 % remain
- PAMPA (% flux) (PAMPA): 50.4 % flux

Molecule: O=C(O)c1ccc(NCc2c(-c3c(Cl)cccc3C(F)(F)F)noc2-c2cc[nH]c2)cc1 [compound 25, 4-[({3-[2-Chloro-6-(trifluoromethyl)phenyl]-5-(1H-pyrrol-3-yl)-1,2-oxazol-4-yl}methyl)amino]benzoic Acid]
- microsomal stability phase 2 (% remain) [2]: 69.8 % remain
- chemical stability (% remain) (Chemical stability): 95.3 % remain
- Hill slope (His6-RORγt-LBD [1]; 0 μM cholesterol): –0.77 ± 0.04
- Hill slope (His6-RORγt-LBD [1]; 0.25 μM cholesterol): –0.86 ± 0.03
- Hill slope (His6-RORγt-LBD [1]; 1.0 μM cholesterol): –1.01 ± 0.03
- improvement in potency compared to phenyl 19 (His6-RORγt-LBD [3]): 36 fold
- plasma protein binding (% bound) (Plasma protein binding): 99.9 % bound
- plasma stability (% remain) (Plasma stability): 85.9 % remain
- PAMPA (% flux) (PAMPA): 33.6 % flux
